Data on 28 molecules can be found in patent publication US20260223850A1, “SUBSTITUTED PYRROLIDONE COMPOUND, PREPARATION METHOD THEREFOR, COMPOSITION AND APPLICATION THEREOF” (QINGDAO KINGAGROOT CHEMICAL COMPOUND CO., LTD., priority 2023, published 2026).

What all share (assay type): in vivo
Holding throughout (details): 120 g a.i./ha, seedling stage sealing, 15 days, fresh weight control rate

The subject of one data set is Echinochloa crusgalli. The data set can be described thus: Seedling stage sealing experiment for water-seeding. An excerpt: (§1) The activity level criteria for plant damage (i.e., growth control rate) are as follows: • Level 9: completely dead; • Level 8: growth control rate greater than or equal to 90% and less than 100%; • Level 7: growth control rate greater than or equal to 80% and less than 90%; • Level 6: growth control rate greater than or equal to 70% and less than 80%; • Level 5: growth control rate greater than or equal to 50% and less than 70%; • Level 4: growth control rate greater than or equal to 30% and less than 50%; • Level 3: growth control rate greater than or equal to 20% and less than 30%; • Level 2: growth control rate greater than or equal to 10% and less than 20%; • Level 1: growth control rate less than 10%; • Level 0: no effect.
(§2) The above growth control rates are fresh weight control rates.
(§3) Echinochloa phyllopogon, Digitaria sanguinalis, Huaidao (rice cultivar), etc. were broadcasted on the surface of nutrition bowls filled with soil and fully covered by soil. The foregoing well-prepared nutrition bowls were then placed in a cultivation box with water filled to a suitable height to keep the soil in the nutrition bowls moist. A test compound of the present invention was individually dissolved with acetone, then diluted into solution of a certain concentration using a certain amount of water, and sprayed using a spray tower. The plants were placed on a greenhouse seedbed and cultured for 15 days, and the experimental results were then collected. The compound was applied at 120, 60, 30 and 15 g a.i./ha in triplicate, and the results were averaged.

The next data set has as its system Echinochloa phyllopogon. The description is as above.
Source text: as §1, §2, §3

A further data set concerns Huaidao (rice cultivar). Put plainly: Seedling stage sealing experiment for water-seeding (crop safety).
Source text: as §1, §2, §3

As for `CN1C[C@H](c2cccc(C(F)(F)F)c2)[C@@H](C(=O)Nc2cnn(C)c2C#N)C1=O` [187′], the “Echinochloa crusgalli activity level (growth control rate)” value (from here on “Echinochloa crusgalli activity level”) in the data set on Echinochloa crusgalli was 9. For the same molecule, in the data set on Echinochloa phyllopogon, the “Echinochloa phyllopogon activity level (growth control rate)” value (from here on “Echinochloa phyllopogon activity level”) is recorded as 9. In the data set on Huaidao (rice cultivar), the “Huaidao (rice cultivar) plant damage level” value (“Huaidao” below) was determined as 0.

On to `Cc1c(NC(=O)[C@H]2C(=O)N(C)C[C@@H]2c2cccc(C(F)(F)F)c2)cnn1C` [189′], for which, in the data set with Echinochloa crusgalli, the “Echinochloa crusgalli activity level” value was found to be 9. The “Echinochloa phyllopogon activity level” value with Echinochloa phyllopogon stood at 9. Further, the “Huaidao” value in the data set with Huaidao (rice cultivar) is reported as 0.

Turning to `COC(=O)c1c(NC(=O)[C@H]2C(=O)N(C)C[C@@H]2c2cccc(C(F)(F)F)c2)cnn1C` [199′], the “Echinochloa crusgalli activity level” value with Echinochloa crusgalli is 6 (Level 6: growth control rate greater than or equal to 70% and less than 80%). The “Echinochloa phyllopogon activity level” value in the data set on Echinochloa phyllopogon is 6 (Level 6: growth control rate greater than or equal to 70% and less than 80%). Besides, in the data set on Huaidao (rice cultivar), the “Huaidao” value was found to be 0.

In the case of `Cc1nn(C(F)F)c(Cl)c1NC(=O)[C@H]1C(=O)N(C)C[C@@H]1c1cccc(C(F)(F)F)c1` [209′], the “Echinochloa crusgalli activity level” value with Echinochloa crusgalli was 7 (Level 7: growth control rate greater than or equal to 80% and less than 90%). Moreover, the “Echinochloa phyllopogon activity level” value in the data set on Echinochloa phyllopogon was 6 (Level 6: growth control rate greater than or equal to 70% and less than 80%). Besides, in the data set with Huaidao (rice cultivar), the “Huaidao” value amounted to 0.

As for `COc1cccc([C@H]2CN(C)C(=O)[C@@H]2C(=O)Nc2cnn(C(F)F)c2Cl)c1` [215′], the “Echinochloa crusgalli activity level” value in the data set with Echinochloa crusgalli came to 9. For the same molecule, in the data set with Echinochloa phyllopogon, the “Echinochloa phyllopogon activity level” value is 8 (Level 8: growth control rate greater than or equal to 90% and less than 100%). The “Huaidao” value with Huaidao (rice cultivar) came to 0.

Regarding `CCc1ccc([C@H]2CN(C)C(=O)[C@@H]2C(=O)Nc2cnn(C)c2Cl)cc1` [244′], the “Echinochloa crusgalli activity level” value in the data set with Echinochloa crusgalli turned out to be 9. Also, the “Echinochloa phyllopogon activity level” value in the data set on Echinochloa phyllopogon was 7 (Level 7: growth control rate greater than or equal to 80% and less than 90%). Further, the “Huaidao” value in the data set on Huaidao (rice cultivar) is recorded as 0.

Turning to `Cc1cc(F)cc([C@H]2CN(C)C(=O)[C@@H]2C(=O)Nc2cnn(C)c2Cl)c1` [264′], the “Echinochloa crusgalli activity level” value in the data set on Echinochloa crusgalli stood at 9. For the same molecule, the “Echinochloa phyllopogon activity level” value with Echinochloa phyllopogon stood at 9. Further, the “Huaidao” value with Huaidao (rice cultivar) is listed as 0.

In the case of `Cc1cc(C)cc([C@H]2CN(C)C(=O)[C@@H]2C(=O)Nc2cnn(CC(F)(F)F)c2Cl)c1` [268′], the “Echinochloa crusgalli activity level” value with Echinochloa crusgalli was 7 (Level 7: growth control rate greater than or equal to 80% and less than 90%). Moreover, in the data set on Echinochloa phyllopogon, the “Echinochloa phyllopogon activity level” value was 6 (Level 6: growth control rate greater than or equal to 70% and less than 80%). Further, the “Huaidao” value in the data set on Huaidao (rice cultivar) stood at 0.

On to `Cc1cc(C)cc([C@H]2CN(C)C(=O)[C@@H]2C(=O)Nc2cnn(C)c2F)c1` [271′], for which the “Echinochloa crusgalli activity level” value in the data set on Echinochloa crusgalli turned out to be 9. The “Echinochloa phyllopogon activity level” value with Echinochloa phyllopogon was 9. In the data set on Huaidao (rice cultivar), the “Huaidao” value was found to be 0.

Turning to `Cc1cc(C)cc([C@H]2CN(C)C(=O)[C@@H]2C(=O)Nc2cnn(C)c2C)c1` [272′], the “Echinochloa crusgalli activity level” value in the data set on Echinochloa crusgalli stood at 9. In addition, the “Echinochloa phyllopogon activity level” value with Echinochloa phyllopogon is 7 (Level 7: growth control rate greater than or equal to 80% and less than 90%). Moreover, the “Huaidao” value with Huaidao (rice cultivar) was determined as 0.

As for `CCc1c(NC(=O)[C@H]2C(=O)N(C)C[C@@H]2c2cc(C)cc(C)c2)cnn1C` [273′], the “Echinochloa crusgalli activity level” value in the data set with Echinochloa crusgalli is 9. Further, the “Echinochloa phyllopogon activity level” value in the data set with Echinochloa phyllopogon was 6 (Level 6: growth control rate greater than or equal to 70% and less than 80%). Moreover, in the data set on Huaidao (rice cultivar), the “Huaidao” value came to 0.

`C=C(C)c1c(NC(=O)[C@H]2C(=O)N(C)C[C@@H]2c2cc(C)cc(C)c2)cnn1C` [276′]: the “Echinochloa crusgalli activity level” value in the data set with Echinochloa crusgalli is recorded as 9. Also, the “Echinochloa phyllopogon activity level” value in the data set with Echinochloa phyllopogon is 6 (Level 6: growth control rate greater than or equal to 70% and less than 80%). In addition, the “Huaidao” value in the data set with Huaidao (rice cultivar) was found to be 0.

Turning to `CN1C[C@H](c2cc(Br)cc(C(F)(F)F)c2)[C@@H](C(=O)Nc2cnn(C)c2Cl)C1=O` [294′], the “Echinochloa crusgalli activity level” value with Echinochloa crusgalli stood at 9. Moreover, in the data set with Echinochloa phyllopogon, the “Echinochloa phyllopogon activity level” value was 7 (Level 7: growth control rate greater than or equal to 80% and less than 90%). Also, the “Huaidao” value in the data set with Huaidao (rice cultivar) was found to be 0.

With `COc1cc(OC)cc([C@H]2CN(C)C(=O)[C@@H]2C(=O)Nc2cnn(C)c2Cl)c1` [302′], in the data set with Echinochloa crusgalli, the “Echinochloa crusgalli activity level” value was found to be 9. In the data set with Echinochloa phyllopogon, the “Echinochloa phyllopogon activity level” value is 6 (Level 6: growth control rate greater than or equal to 70% and less than 80%). In the data set with Huaidao (rice cultivar), the “Huaidao” value was 0.

On to `Cc1ccc([C@H]2CN(C)C(=O)[C@@H]2C(=O)Nc2cnn(C)c2Cl)cc1C` [314′], for which, in the data set with Echinochloa crusgalli, the “Echinochloa crusgalli activity level” value was 9. The “Echinochloa phyllopogon activity level” value with Echinochloa phyllopogon was 9. In addition, the “Huaidao” value in the data set with Huaidao (rice cultivar) is listed as 0.

Regarding `CN1C[C@H](c2cc(Cl)c(Cl)c(C(F)(F)F)c2)[C@@H](C(=O)Nc2cnn(C)c2Cl)C1=O` [326′], the “Echinochloa crusgalli activity level” value with Echinochloa crusgalli is 8 (Level 8: growth control rate greater than or equal to 90% and less than 100%). The “Echinochloa phyllopogon activity level” value in the data set with Echinochloa phyllopogon was 7 (Level 7: growth control rate greater than or equal to 80% and less than 90%). Moreover, in the data set with Huaidao (rice cultivar), the “Huaidao” value amounted to 0.

With `CCc1ccc([C@H]2CN(C)C(=O)[C@@H]2C(=O)Nc2cnn(C)c2Cl)s1` [338′], the “Echinochloa crusgalli activity level” value with Echinochloa crusgalli was 9. Also, in the data set on Echinochloa phyllopogon, the “Echinochloa phyllopogon activity level” value is 6 (Level 6: growth control rate greater than or equal to 70% and less than 80%). Also, in the data set on Huaidao (rice cultivar), the “Huaidao” value was 0.

In the case of `COCc1c(NC(=O)[C@H]2C(=O)N(C)C[C@@H]2c2cccc(C)c2)cnn1C` [378′], the “Echinochloa crusgalli activity level” value in the data set on Echinochloa crusgalli stood at 9. The “Echinochloa phyllopogon activity level” value in the data set with Echinochloa phyllopogon was 6 (Level 6: growth control rate greater than or equal to 70% and less than 80%). Further, the “Huaidao” value in the data set on Huaidao (rice cultivar) is 0.

Regarding `C=C(C)c1c(NC(=O)[C@H]2C(=O)N(C)C[C@@H]2c2cccc(C)c2)cnn1C` [379′], in the data set with Echinochloa crusgalli, the “Echinochloa crusgalli activity level” value came to 9. In addition, in the data set with Echinochloa phyllopogon, the “Echinochloa phyllopogon activity level” value is 6 (Level 6: growth control rate greater than or equal to 70% and less than 80%). The “Huaidao” value with Huaidao (rice cultivar) is recorded as 0.

Take `C=CCn1ncc(NC(=O)[C@H]2C(=O)N(C)C[C@@H]2c2cccc(C)c2)c1Cl` [381′]: the “Echinochloa crusgalli activity level” value in the data set with Echinochloa crusgalli was 9. The “Echinochloa phyllopogon activity level” value in the data set on Echinochloa phyllopogon was 6 (Level 6: growth control rate greater than or equal to 70% and less than 80%). Besides, in the data set on Huaidao (rice cultivar), the “Huaidao” value was 0.

`CCn1ncc(NC(=O)[C@H]2C(=O)N(C)C[C@@H]2c2cccc(C)c2)c1Cl` [385′]: the “Echinochloa crusgalli activity level” value in the data set on Echinochloa crusgalli stood at 9. The “Echinochloa phyllopogon activity level” value in the data set with Echinochloa phyllopogon is 9. Also, the “Huaidao” value in the data set on Huaidao (rice cultivar) was 2 (Level 2: growth control rate greater than or equal to 10% and less than 20%).

As to `COCCn1ncc(NC(=O)[C@H]2C(=O)N(C)C[C@@H]2c2cccc(C)c2)c1Cl` [386′], in the data set with Echinochloa crusgalli, the “Echinochloa crusgalli activity level” value came to 9. The “Echinochloa phyllopogon activity level” value with Echinochloa phyllopogon is 6 (Level 6: growth control rate greater than or equal to 70% and less than 80%). Further, in the data set with Huaidao (rice cultivar), the “Huaidao” value was 0.

Regarding `Cc1cccc([C@H]2CN(C)C(=O)[C@@H]2C(=O)Nc2cnn(C)c2F)c1` [388′], the “Echinochloa crusgalli activity level” value with Echinochloa crusgalli turned out to be 9. Besides, in the data set with Echinochloa phyllopogon, the “Echinochloa phyllopogon activity level” value was 6 (Level 6: growth control rate greater than or equal to 70% and less than 80%). Further, in the data set with Huaidao (rice cultivar), the “Huaidao” value worked out at 0.

As for `Cc1cccc([C@H]2CN(C)C(=O)[C@@H]2C(=O)Nc2cnn(C)c2Br)c1` [389′], in the data set on Echinochloa crusgalli, the “Echinochloa crusgalli activity level” value is reported as 9. For the same molecule, the “Echinochloa phyllopogon activity level” value with Echinochloa phyllopogon turned out to be 9. Further, the “Huaidao” value in the data set on Huaidao (rice cultivar) is on record as 0.

As to `Cc1cccc([C@H]2CN(C)C(=O)[C@@H]2C(=O)Nc2cnn(C)c2C#N)c1` [391′], in the data set with Echinochloa crusgalli, the “Echinochloa crusgalli activity level” value came out at 9. Moreover, the “Echinochloa phyllopogon activity level” value with Echinochloa phyllopogon came out at 9. The “Huaidao” value in the data set with Huaidao (rice cultivar) was 0.

With `CCn1ncc(NC(=O)[C@H]2C(=O)N(C)C[C@@H]2c2cccc(C)c2)c1C1CC1` [394′], the “Echinochloa crusgalli activity level” value in the data set on Echinochloa crusgalli was 9. In the data set with Echinochloa phyllopogon, the “Echinochloa phyllopogon activity level” value was 6 (Level 6: growth control rate greater than or equal to 70% and less than 80%). For the same molecule, the “Huaidao” value in the data set with Huaidao (rice cultivar) was 0.

On to `Cc1cccc([C@H]2CN(C)C(=O)[C@@H]2C(=O)Nc2cn(C)nc2I)c1` [399′], for which the “Echinochloa crusgalli activity level” value in the data set on Echinochloa crusgalli was determined as 9. Further, the “Echinochloa phyllopogon activity level” value with Echinochloa phyllopogon was found to be 9. In addition, the “Huaidao” value with Huaidao (rice cultivar) stood at 0.

In the case of `C=Cc1c(NC(=O)[C@H]2C(=O)N(C)C[C@@H]2c2cccc(C(F)(F)F)c2)cnn1C(F)F` [406′], the “Echinochloa crusgalli activity level” value in the data set on Echinochloa crusgalli is reported as 9. Also, the “Echinochloa phyllopogon activity level” value with Echinochloa phyllopogon turned out to be 9. Also, in the data set on Huaidao (rice cultivar), the “Huaidao” value is 2 (Level 2: growth control rate greater than or equal to 10% and less than 20%).
